This experiment has as its system advanced glycosylated end products (AGE). Briefly: AGE formation inhibition: bovine serum albumin incubated with D-glucose, fluorescence measurement (method of Brownlee et al.). It counts as biochemical. As to conditions: bovine serum albumin 20%, D-glucose 100 mM, 0.5M phosphate buffer pH 7.4, 37° C for 7 days, fluorescence 370/440 nm, control = 100%. The procedure:
The production of advanced glycosylated end products (AGE) and its measurement were carried out in accordance with the report by Brownlee et al. [Science, 232 1629 (1986)]. Thus, bovine serum albumin (fraction V, manufactured by Wako Pure Chemical Ind. of Japan, 20%), D-glucose (100 mM) and sodium azide (3 mM) were dissolved in 0.5M phosphate buffer (pH 7.4) to prepare a reaction solution (control). A test specimen was dissolved in dimethyl sulfoxide, and the solution was added to the reaction solution to the concentrations 1 mM, 0.5 mM and 0.2 mM, respectively. These solutions were incubated at 37° C for 7 days, whereupon the solutions, before and after incubation, were diluted with phosphate buffer, followed by measurement of fluoresceces (by use of RF-510 spectrofluorimeter, manufactured by Shimadzu Seisakusho of Japan) at 370 nm of the excitation wavelength and 440 nm of the emission wavelength. The variation in fluorescence (F) was utilized to calculate the formation ratio (%) following the formula described below. In the above tests, the blind test was carried out using the reaction solution free from D-glucose. The AGE were calculated by the following equation: Formation ratio = [ F(T) - F(B)]/[ F(C) - F(B)] x 100 [formula] where F(T), F(B) and F(C) are variations in fluorescence for test specimen, blind test specimen and control, respectively.

Setting [1] is: Concentration of test specimen: 0.5 mM.
Setting [2] is: Concentration of test specimen: 1 mM.

SMILES strings stand for the structures. Marks after values point to notes of the source that are not given here.

Turning to `O=C(NC(=S)Nc1nc(-c2ccc3c(c2)CCCC3)cs1)c1ccccc1` [Example 1, 1-benzoyl-3-[4-(5,6,7,8-tetrahydro-2-naphthyl)-2-thiazolyl] thiourea], the “AGE Formation Ratio (% against the control value)” value under setting [1] is listed as 43^2) %.

Regarding `Cc1ccc(-c2csc(NC(=S)NC(=O)c3ccccc3)n2)cc1` [Example 4], the “AGE Formation Ratio (% against the control value)” value under setting [2] was 47^1) %.

As for `O=C(NC(=S)Nc1nc(-c2ccc(C(F)(F)F)cc2)cs1)c1ccccc1` [Example 8], the “AGE Formation Ratio (% against the control value)” value under setting [2] was 58^1) %.

For the compound `O=C(NC(=S)Nc1nc(-c2ccc(Cl)cc2)cs1)c1ccccc1` [Example 10], the “AGE Formation Ratio (% against the control value)” value under setting [2] is recorded as 30^1) %.

In the case of `COc1ccc(-c2csc(NC(=S)NC(=O)c3ccccc3)n2)cc1` [Example 11], under setting [2], the “AGE Formation Ratio (% against the control value)” value is given as 66^1) %.

Regarding `O=C(NC(=S)Nc1nc(-c2ccc3c(c2)OCCO3)cs1)c1ccccc1` [Example 13], under setting [2], the “AGE Formation Ratio (% against the control value)” value is 45^1) %.

On to `O=C(NC(=S)Nc1nc(-c2ccc3ccccc3c2)cs1)c1ccccc1` [Example 15], for which the “AGE Formation Ratio (% against the control value)” value under setting [1] was 46^2) %.

In the case of `CCc1sc(NC(=S)NC(=O)c2ccccc2)nc1-c1ccc2c(c1)CCCC2` [Example 20], the “AGE Formation Ratio (% against the control value)” value under setting [1] is recorded as 0^2) %.

On to `CC(C)c1sc(NC(=S)NC(=O)c2ccccc2)nc1-c1ccc2c(c1)CCCC2` [Example 21], for which the “AGE Formation Ratio (% against the control value)” value under setting [1] is 19^2) %.

As for `O=C(NC(=S)Nc1nc(-c2ccc3c(c2)CCCC3)c(-c2ccccc2)s1)c1ccccc1` [Example 22], the “AGE Formation Ratio (% against the control value)” value under setting [2] is reported as 31^1) %.

Turning to `O=C(NC(=S)Nc1nc(-c2ccc3c(c2)CCCC3)cs1)c1ccc(Cl)cc1` [Example 23, 1-(4-chlorobenzoyl)-3-[4-(5,6.7,8-tetrahydro-2-naphthyl-)2-thiazolyl]thiourea], the “AGE Formation Ratio (% against the control value)” value under setting [2] was 51^1) %.

Consider `O=C(NC(=S)Nc1nc(-c2ccc3c(c2)CCCC3)cs1)c1ccc(F)cc1` [Example 26], for which, under setting [1], the “AGE Formation Ratio (% against the control value)” value was 34^2) %.

`Cc1ccccc1C(=O)NC(=S)Nc1nc(-c2ccc3c(c2)CCCC3)cs1` [Example 27]: under setting [2], the “AGE Formation Ratio (% against the control value)” value is given as 0^1) %.

In the case of `O=C(NC(=S)Nc1nc(-c2ccc3c(c2)CCCC3)cs1)c1ccncc1` [Example 31], the “AGE Formation Ratio (% against the control value)” value under setting [1] is on record as 53^2) %.

Turning to `O=C(NC(=S)Nc1nc(-c2ccc3c(c2)CCCC3)cs1)c1ccc2ccccc2c1` [Example 34], the “AGE Formation Ratio (% against the control value)” value under setting [1] is on record as 0^2) %.

Take `O=C(/C=C/c1ccccc1)NC(=S)Nc1nc(-c2ccc3c(c2)CCCC3)cs1` [Example 37]: the “AGE Formation Ratio (% against the control value)” value under setting [2] is given as 49^1) %.

Consider `Cc1ccc(C)c(C(=O)NC(=S)Nc2nc(-c3ccc4c(c3)CCCC4)cs2)c1` [Example 42], for which the “AGE Formation Ratio (% against the control value)” value under setting [1] is 35^2) %.

Take `O=C(NC(=S)Nc1nc(-c2ccc3c(c2)CCCC3)cs1)c1ccccc1C(F)(F)F` [Example 47]: under setting [2], the “AGE Formation Ratio (% against the control value)” value is given as 16^1) %.

In the case of `O=C(NC(=S)Nc1nc(-c2ccc3c(c2)CCCC3)cs1)c1ccc2c(c1)CCCC2` [Example 60], the “AGE Formation Ratio (% against the control value)” value under setting [1] is 17^2) %.

In the case of `O=C(NC(=S)Nc1nc(-c2ccc3c(c2)CCCC3)cs1)c1c2ccccc2cc2ccccc12` [Example 63], the “AGE Formation Ratio (% against the control value)” value under setting [2] is given as 54^1) %.

Regarding `CCCCC(CC)C(=O)NC(=S)Nc1nc(-c2ccc3c(c2)CCCC3)cs1` (stereo not drawn) [Example 72], the “AGE Formation Ratio (% against the control value)” value under setting [2] is recorded as 58^1) %.

The values above are taken from patent EP0369453A2, “AGE-formation inhibitory agents” (Takeda Chemical Industries, Ltd., priority 1988, dated 1990).
